In paper PMC10388311, “Innovative Strategy toward Mutant CFTR Rescue in Cystic Fibrosis: Design and Synthesis of Thiadiazole Inhibitors of the E3 Ligase RNF5” (Journal of Medicinal Chemistry, 2023):

Biological target: F508del-CFTR in CFBE41o– cells (Homo sapiens, UniProt Q99942)
Assay: HS-YFP microfluorimetric assay of F508del-CFTR rescue (corrector activity)
Format: cell-based
Conditions: CFBE41o– cells co-expressing F508del-CFTR and HS-YFP, 24 h treatment, Figure 5
Experimental: As a primary screen, the new thiadiazole derivatives 1–46 (Table 1) were tested for their ability to rescue the F508del-CFTR trafficking defect in CFBE41o^– cells, stably co-expressing F508del-CFTR and the HS-YFP (Figure 5). This cell line has been extensively used by our group, in combination with the microfluorimetric assay based on the HS-YFP, to identify and characterize many CFTR correctors.[39],[47] This assay relies on the hypothesis that RNF5 inhibition results in increased mutant CFTR processing and activity. Therefore, it can easily identify putative RNF5 inhibitors, but not other types of RNF5-binding compounds that could have no effect or have a negative effect on CFTR function, such as RNF5 activators (see analog-1). Thus, we opted for this assay as our primary aim was the identification of RNF5 inhibitors as a possible therapeutic strategy in CF. Twenty-four hours after seeding on 96-well plates, CFBE41o^– cells stably expressing F508del-CFTR and the HS-YFP were treated with test compounds at the desired concentration, one compound per well. Cells treated with vehicle alone (DMSO) and with corrector VX-809 (1 μM), respectively, served as negative and positive controls. At the time of the assay, cells were washed with PBS containing (in […]) 137 NaCl, 2.7 KCl, 8.1 Na2HPO4, 1.5 KH2PO4, 1 CaCl2, and 0.5 MgCl2. Cells were then incubated for 25 min with […] of PBS plus forskolin (20 μM) and VX-770 (1 μM) to maximally stimulate F508del-CFTR. Cells were then transferred to a microplate reader (FluoStar Galaxy; BMG Labtech, Offenburg, Germany) for CFTR activity determination. The plate reader was equipped with high-quality excitation (HQ500/20X: 500 ± 10 nm) and emission (HQ535/30M: 535 ± 15 nm) filters for YFP (Chroma Technology). Each assay comprised a continuous 14 s fluorescence reading and 2 s before and 12 s after injection of […] of an iodide-containing solution (PBS with Cl^– replaced by I^–; final I^– concentration […]). Data were normalized to the initial background-subtracted fluorescence. To determine the I^– influx rate, the final 11 s of the data for each well was fitted with an exponential function to extrapolate initial slope (dF/dt). Reproducibility of results was confirmed by performing three independent experiments. CFBE41o^– cells co-expressing F508del-CFTR and the HS-YFP were reverse-transfected with 50 nM (final concentration) siRNAs (Stealth, Life Technologies) in the presence of lipofectamine 2000 as a transfection agent. The following day, the medium was changed, and the cells were incubated at 37 °C for additional 24 h treated with test compounds at the desired concentration, prior to processing the cells for the YFP-based functional assay.

F508del-CFTR in CFBE41o– cells, sequence (Q99942 2-180): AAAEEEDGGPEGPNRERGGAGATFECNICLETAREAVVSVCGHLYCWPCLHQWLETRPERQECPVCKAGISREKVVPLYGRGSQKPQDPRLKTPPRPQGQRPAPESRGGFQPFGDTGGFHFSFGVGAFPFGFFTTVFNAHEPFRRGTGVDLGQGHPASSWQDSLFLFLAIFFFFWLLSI
F508del-CFTR in CFBE41o– cells, sequence (P13569 with tags, fused parts or gaps DEL508-508 partner): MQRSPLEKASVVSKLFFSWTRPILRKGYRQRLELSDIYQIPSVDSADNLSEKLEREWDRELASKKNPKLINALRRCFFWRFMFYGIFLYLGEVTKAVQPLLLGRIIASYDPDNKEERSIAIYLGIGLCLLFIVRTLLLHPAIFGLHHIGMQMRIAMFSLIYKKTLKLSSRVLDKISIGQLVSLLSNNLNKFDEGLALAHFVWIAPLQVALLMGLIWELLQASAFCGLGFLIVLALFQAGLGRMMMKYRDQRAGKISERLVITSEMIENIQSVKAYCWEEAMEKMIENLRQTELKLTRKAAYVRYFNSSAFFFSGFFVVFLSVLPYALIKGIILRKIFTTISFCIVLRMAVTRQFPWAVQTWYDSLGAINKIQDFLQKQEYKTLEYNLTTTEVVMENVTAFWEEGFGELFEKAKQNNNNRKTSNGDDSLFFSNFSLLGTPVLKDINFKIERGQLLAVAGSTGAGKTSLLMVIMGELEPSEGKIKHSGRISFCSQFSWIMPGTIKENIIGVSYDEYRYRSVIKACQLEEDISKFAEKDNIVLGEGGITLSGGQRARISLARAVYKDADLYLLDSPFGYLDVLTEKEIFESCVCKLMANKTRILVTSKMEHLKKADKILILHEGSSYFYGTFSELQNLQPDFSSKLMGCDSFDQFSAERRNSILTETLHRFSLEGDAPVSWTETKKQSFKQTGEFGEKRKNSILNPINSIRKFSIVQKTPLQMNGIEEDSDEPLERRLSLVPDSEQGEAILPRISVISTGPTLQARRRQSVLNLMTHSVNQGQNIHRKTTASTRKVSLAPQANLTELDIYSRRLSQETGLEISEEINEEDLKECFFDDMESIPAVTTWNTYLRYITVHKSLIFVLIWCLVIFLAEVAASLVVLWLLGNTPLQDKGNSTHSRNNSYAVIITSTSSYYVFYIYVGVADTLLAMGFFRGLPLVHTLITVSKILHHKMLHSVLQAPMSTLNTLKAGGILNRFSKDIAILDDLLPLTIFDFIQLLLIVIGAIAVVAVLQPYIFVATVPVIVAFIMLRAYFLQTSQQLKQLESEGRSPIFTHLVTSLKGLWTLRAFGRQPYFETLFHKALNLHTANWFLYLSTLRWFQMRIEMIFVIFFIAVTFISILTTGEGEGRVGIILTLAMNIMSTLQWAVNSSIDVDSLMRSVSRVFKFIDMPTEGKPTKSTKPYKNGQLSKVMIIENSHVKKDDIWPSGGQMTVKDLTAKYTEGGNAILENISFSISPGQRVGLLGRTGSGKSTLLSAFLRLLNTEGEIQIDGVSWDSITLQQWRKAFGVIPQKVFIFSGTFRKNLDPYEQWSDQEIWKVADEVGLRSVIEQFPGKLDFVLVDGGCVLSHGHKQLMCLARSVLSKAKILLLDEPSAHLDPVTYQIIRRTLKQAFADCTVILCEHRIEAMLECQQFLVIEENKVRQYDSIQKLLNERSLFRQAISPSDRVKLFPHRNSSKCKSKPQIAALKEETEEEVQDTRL

| SMILES | F508del-CFTR corrector activity compared with inh-2 (CFTR activity, primary screen) |
| --- | --- |
| Cc1ccc(Cn2c(C)ns/c2=N\C(=N\c2ccccc2)c2ccccc2)cc1 [Compound 6, (E)-N-((Z)-3-Methyl-4-(4-methylbenzyl)-1,2,4-thiadiazol-5(4H)-ylidene)-N′-phenylbenzimidamide] | maintained the activity unaltered |
| Cc1ns/c(=N\C(=N\c2ccccc2)c2ccccc2)n1Cc1cccc(F)c1 [Compound 23, (E)-N-((Z)-4-(3-Fluorobenzyl)-3-methyl-1,2,4-thiadiazol-5(4H)-ylidene)-N′-phenylbenzimidamide] | did not affect the activity |
| Cc1ns/c(=N\C(=N\c2ccccc2)c2ccccc2)n1Cc1cccc(OC(C)C)c1 [Compound 18, (E)-N-((Z)-4-(3-Isopropoxybenzyl)-3-methyl-1,2,4-thiadiazol-5(4H)-ylidene)-N′-phenylbenzimidamide] | decreased potency |
| Cc1nn(Cc2ccccc2)/c(=N/C(=N/c2ccccc2)c2ccccc2)s1 [Compound 44, (E)-N-((Z)-3-Benzyl-5-methyl-1,3,4-thiadiazol-2(3H)-ylidene)-N′-phenylbenzimidamide] | abolished any corrector activity |
| COc1ccccc1Cn1c(C)ns/c1=N\C(=N\c1ccccc1)c1ccccc1 [Compound 27, (E)-N-((Z)-4-(2-Methoxybenzyl)-3-methyl-1,2,4-thiadiazol-5(4H)-ylidene)-N′-phenylbenzimidamide] | slight increase in activity |
| Cc1ns/c(=N\C(=N\c2ccccc2)c2ccccc2)n1Cc1cccc(N)c1 [Compound 20, (E)-N-((Z)-4-(3-Aminobenzyl)-3-methyl-1,2,4-thiadiazol-5(4H)-ylidene)-N′-phenylbenzimidamide] | decreased potency |
| Cc1ns/c(=N\C(=N\Cc2ccccc2)c2ccccc2)n1Cc1ccccc1 [Compound 38, (E)-N′-Benzyl-N-((Z)-4-benzyl-3-methyl-1,2,4-thiadiazol-5(4H)-ylidene)benzimidamide] | inactive analogs |
| Cc1ns/c(=N\C(=N\c2ccccc2)c2ccccc2)n1Cc1ccccc1Cl [Compound 28, (E)-N-((Z)-4-(2-Chlorobenzyl)-3-methyl-1,2,4-thiadiazol-5(4H)-ylidene)-N′-phenylbenzimidamide] | comparable activity to the unsubstituted original hit inh-2 |
| Cc1ns/c(=N\C(=N\c2ccccc2)c2ccccc2)n1CCc1ccccc1 [Compound 4, (E)-N-((Z)-3-Methyl-4-phenethyl-1,2,4-thiadiazol-5(4H)-ylidene)-N′-phenylbenzimidamide] | devoid of significant F508del-CFTR corrector activity |
| c1ccc(Cn2ncs/c2=N\C(=N\c2ccccc2)c2ccccc2)cc1 [Compound 45, (E)-N-((Z)-3-Benzyl-1,3,4-thiadiazol-2(3H)-ylidene)-N′-phenylbenzimidamide] | abolished any corrector activity |
| Cc1ccccc1Cn1c(C)ns/c1=N\C(=N\c1ccccc1)c1ccccc1 [Compound 25, (E)-N-((Z)-3-Methyl-4-(2-methylbenzyl)-1,2,4-thiadiazol-5(4H)-ylidene)-N′-phenylbenzimidamide] | slight increase in activity |
| Cc1ns/c(=N\C(=N\C2CCCCC2)c2ccccc2)n1Cc1ccccc1 [Compound 39, (E)-N-((Z)-4-Benzyl-3-methyl-1,2,4-thiadiazol-5(4H)-ylidene)-N′-cyclohexylbenzimidamide] | inactive analogs |
| Cc1cccc(/N=C(/N=c2\snc(C)n2Cc2ccccc2)c2ccccc2)c1 [Compound 37, (E)-N-((Z)-4-Benzyl-3-methyl-1,2,4-thiadiazol-5(4H)-ylidene)-N′-(m-tolyl)benzimidamide] | inactive analogs |
| Cc1ns/c(=N\C(=N\c2ccccc2)c2ccccc2)n1Cc1ccc(Cl)cc1 [Compound 10, (E)-N-((Z)-4-(4-Chlorobenzyl)-3-methyl-1,2,4-thiadiazol-5(4H)-ylidene)-N′-phenylbenzimidamide] | maintained the activity unaltered |
| Cc1ns/c(=N\C(=N\c2ccccc2)c2ccccc2)n1Cc1cccc(Cl)c1 [Compound 24, (E)-N-((Z)-4-(3-Chlorobenzyl)-3-methyl-1,2,4-thiadiazol-5(4H)-ylidene)-N′-phenylbenzimidamide] | increased activity |
| COc1ccc(Cn2c(C)ns/c2=N\C(=N\c2ccccc2)c2ccccc2)cc1 [Compound 7, (E)-N-((Z)-4-(4-Methoxybenzyl)-3-methyl-1,2,4-thiadiazol-5(4H)-ylidene)-N′-phenylbenzimidamide] | reduced potency |
| Cc1ns/c(=N\C(=N\c2ccccc2)c2ccccc2)n1CCCc1ccccc1 [Compound 5, (E)-N-((Z)-3-Methyl-4-(3-phenylpropyl)-1,2,4-thiadiazol-5(4H)-ylidene)-N′-phenylbenzimidamide] | devoid of significant F508del-CFTR corrector activity |
| Cc1ns/c(=N\C(=N\c2ccccc2)c2ccccc2)n1Cc1ccc(O)cc1 [Compound 8, (E)-N-((Z)-4-(4-Hydroxybenzyl)-3-methyl-1,2,4-thiadiazol-5(4H)-ylidene)-N′-phenylbenzimidamide] | reduced potency |
| CCOc1cccc(Cn2c(C)ns/c2=N\C(=N\c2ccccc2)c2ccccc2)c1 [Compound 19, (E)-N-((Z)-4-(3-Ethoxybenzyl)-3-methyl-1,2,4-thiadiazol-5(4H)-ylidene)-N′-phenylbenzimidamide] | did not affect the activity |
| Cc1ns/c(=N\C(=N\c2ccccc2)c2ccccc2)n1Cc1ccccc1C(F)(F)F [Compound 26, (E)-N-((Z)-3-Methyl-4-(2-(trifluoromethyl)benzyl)-1,2,4-thiadiazol-5(4H)-ylidene)-N′-phenylbenzimidamide] | detrimental effect |
| Cc1ns/c(=N\C(=N\c2cccnc2)c2ccccc2)n1Cc1ccccc1 [Compound 41, (E)-N-((Z)-4-Benzyl-3-methyl-1,2,4-thiadiazol-5(4H)-ylidene)-N′-(pyridin-3-yl)benzimidamide] | inactive analogs |
| Cc1ns/c(=N\C(=N\c2ccccc2)c2ccccc2)n1Cc1cccc(C(F)(F)F)c1 [Compound 15, (E)-N-((Z)-3-Methyl-4-(3-(trifluoromethyl)benzyl)-1,2,4-thiadiazol-5(4H)-ylidene)-N′-phenylbenzimidamide] | decreased potency |
| c1ccc(Cn2ccs/c2=N\C(=N\c2ccccc2)c2ccccc2)cc1 [Compound 46, (E)-N-((Z)-3-Benzylthiazol-2(3H)-ylidene)-N′-phenylbenzimidamide] | abolished any corrector activity |
| Cc1cccc(Cn2c(C)ns/c2=N\C(=N\c2ccccc2)c2ccccc2)c1 [Compound 14, (E)-N-((Z)-3-Methyl-4-(3-methylbenzyl)-1,2,4-thiadiazol-5(4H)-ylidene)-N′-phenylbenzimidamide] | did not affect the activity |
| Cc1ns/c(=N\C(=N\c2ccccc2)c2ccccc2)n1Cc1cccc(N(C)C)c1 [Compound 22, (E)-N-((Z)-4-(3-(Dimethylamino)benzyl)-3-methyl-1,2,4-thiadiazol-5(4H)-ylidene)-N′-phenylbenzimidamide] | did not affect the activity |
| COCCc1ccnc(/N=c2\snc(C)n2Cc2ccccc2)c1 [Compound 43, (Z)-4-Benzyl-N-(4-(2-methoxyethyl)pyridin-2-yl)-3-methyl-1,2,4-thiadiazol-5(4H)-imine] | inactive compounds |
| Cc1ns/c(=N\C(=N\c2ccccc2)c2cccnc2)n1Cc1ccccc1 [Compound 35, (E)-N-((Z)-4-Benzyl-3-methyl-1,2,4-thiadiazol-5(4H)-ylidene)-N′-phenylnicotinimidamide] | drop of activity |
